Assay results as given in patent US20250032525A1 (priority 2021, published 2025).
Read-outs that look alike come from different tables or passages of the source.

How the values were obtained:
[1] = tested on: NCI-60 cell lines; experiment: NCI DTP NCI-60 cell line screen database (sulforhodamine B), panel; type: cell-based; settings: Homo sapiens
[2] = tested on: SK-MEL-28; settings: SK-MEL-28, NCI-60 database, sulforhodamine B; read-out: Cytotoxic IC50; cited from earlier work
[3] = tested on: SK-MEL-2; settings: SK-MEL-2, NCI-60 database, sulforhodamine B; read-out: Cytotoxic IC50; cited from earlier work
[4] = tested on: SW-620; settings: SW-620, NCI-60 database, sulforhodamine B; read-out: Cytotoxic IC50; cited from earlier work
[5] = tested on: RXF 393; settings: RXF 393, NCI-60 database, sulforhodamine B; read-out: Cytotoxic IC50; cited from earlier work
[6] = tested on: HOP-62; settings: HOP-62, NCI-60 database, sulforhodamine B; read-out: Cytotoxic IC50; cited from earlier work
[7] = tested on: HT29; settings: HT29, NCI-60 database, sulforhodamine B; read-out: Cytotoxic IC50; cited from earlier work
[8] = tested on: patient-derived lung adenocarcinoma xenografts; experiment: Patient-derived xenograft (PDX) model; type: in vivo, NSG mice; settings: single treatment; LiPyDau 0.5 mg/kg, DOX 2 mg/kg, paclitaxel 12 mg/kg; 7 days
Text: A piece from the tumor tissue was transplanted subcutaneously into the right flank and propagated in NOD.Cg-Prkdc^scid Il2rg^tm1Wjl/SzJ (NSG) mice for 7 months. After the xenografted tumor reached 1000 mm^3, tumor pieces were retransplanted subcutaneously into the right flank of 20 additional NSG mice, which were given a single treatment with various chemotherapeutics or LiPyDau. Every treatment group consists of 5 animals. After daily monitoring of the tumor volume for one week, the mice were sacrificed and the cytotoxicity of the treatments was investigated on tissue slices by image analysis.
For treatment, tumor pieces were engrafted subcutaneously.

[9] = tested on: MALME-3M; settings: NCI-60 database, sulforhodamine B, read-out: Cytotoxic IC50; cited from earlier work
[10] = tested on: CCRF-CEM; settings: NCI-60 database, sulforhodamine B, read-out: Cytotoxic IC50; cited from earlier work
[11] = tested on: EKVX; settings: NCI-60 database, sulforhodamine B, read-out: Cytotoxic IC50; cited from earlier work
[12] = tested on: HL-60(TB); settings: NCI-60 database, sulforhodamine B, read-out: Cytotoxic IC50; cited from earlier work
[13] = tested on: RXF 393; experiment: In vitro cytotoxicity (PrestoBlue); type: cell-based; settings: Homo sapiens, RXF 393, 72 h; read-out: Cytotoxic IC50
Text: (§1) Experiments were repeated at least 3 times.

[14] = tested on: PANC-1; experiment: In vitro cytotoxicity (PrestoBlue); type: cell-based; settings: Homo sapiens, PANC-1, 72 h; read-out: Cytotoxic IC50
Text: as §1

[15] = tested on: EKVX; experiment: In vitro cytotoxicity (PrestoBlue); type: cell-based; settings: Homo sapiens, 72 h, read-out: Cytotoxic IC50
Text: as §1

[16] = tested on: NCI-H522; experiment: In vitro cytotoxicity (PrestoBlue); type: cell-based; settings: Homo sapiens, NCI-H522, 72 h; read-out: Cytotoxic IC50
Text: as §1

[17] = tested on: HCC-2998; experiment: In vitro cytotoxicity (PrestoBlue); type: cell-based; settings: Homo sapiens; HCC-2998, 72 h; read-out: Cytotoxic IC50
Text: as §1

[18] = tested on: HL-60(TB); experiment: In vitro cytotoxicity (PrestoBlue); type: cell-based; settings: Homo sapiens, 72 h, read-out: Cytotoxic IC50
Text: as §1

[19] = tested on: KM12; experiment: In vitro cytotoxicity (PrestoBlue); type: cell-based; settings: Homo sapiens, KM12, 72 h; read-out: Cytotoxic IC50
Text: as §1

[20] = tested on: A498; experiment: In vitro cytotoxicity (PrestoBlue); type: cell-based; settings: Homo sapiens, A498, 72 h; read-out: Cytotoxic IC50
Text: as §1

[21] = tested on: OVCAR-3; experiment: In vitro cytotoxicity (PrestoBlue); type: cell-based; settings: Homo sapiens, OVCAR-3, 72 h; read-out: Cytotoxic IC50
Text: as §1

[22] = tested on: DU-145; experiment: In vitro cytotoxicity (PrestoBlue); type: cell-based; settings: Homo sapiens, DU-145, 72 h; read-out: Cytotoxic IC50
Text: as §1

[23] = tested on: OVCAR-8; experiment: In vitro cytotoxicity (PrestoBlue); type: cell-based; settings: Homo sapiens, OVCAR-8, 72 h; read-out: Cytotoxic IC50
Text: as §1

[24] = tested on: UO-31; experiment: In vitro cytotoxicity (PrestoBlue); type: cell-based; settings: Homo sapiens, UO-31, 72 h; read-out: Cytotoxic IC50
Text: as §1

[25] = tested on: HCT-116; experiment: In vitro cytotoxicity (PrestoBlue); type: cell-based; settings: Homo sapiens, HCT-116, 72 h; read-out: Cytotoxic IC50
Text: as §1

[26] = tested on: SW-620; experiment: In vitro cytotoxicity (PrestoBlue); type: cell-based; settings: Homo sapiens, SW-620, 72 h; read-out: Cytotoxic IC50
Text: as §1

[27] = tested on: MDA-MB-231; experiment: In vitro cytotoxicity (PrestoBlue); settings: Homo sapiens, MDA-MB-231, 72 h, read-out: Cytotoxic IC50
Protocol: Cells were seeded in 40 μl medium on 384 well plates by an automatic liquid handling machine (Hamilton StarLet) in a density of 2500 cells/well. Adherent cells were cultured for 24 h before the addition of the compounds, while drugs were added to non-adherent cells 2 h after cell seeding. The drugs were serially diluted, and dispensed in an additional 20 μl. Cells were incubated for an additional 72 h, cytotoxicity was assessed by the PrestoBlue viability reagent (Thermo Fisher). Experiments were repeated at least 3 times.

[28] = In vivo toxicity (dose-finding) studies; design: species or system FVB mice; settings: 0.25 mg/kg given repeatedly, later experiments
[29] = Storage stability of PyDau; type: physicochemical; settings: monomer form, −20° C.
Protocol: 2-pyrrolinodoxorubicin (PyDox) TFA salt was developed in 1996 (Nagy A. et al.; Proc. Natl. Acad. Sci. U.S.A. 93 (1996). 2464-2469). In the first step Nagy et al. applied 4-iodobutyraldehyde, that was prepared from 2-(3-chloropropyl)-1,3-dioxolane followed by Shiff-base formation and cyclization. The synthesis of 4-iodobutyraldehyde—which is the key step for efficient synthesis-was later improved by Studenovsky et al. (Eur. J. Pharm. Sci. 42 (2011). 156-163). […] Therefore, a new approach was investigated for the preparation of PyDau. First, the stable and storable 4-bromobutyraldehyde was applied for the synthesis. The reaction was carried out in DCM in the presence of excess DIPEA under nitrogen atmosphere at room temperature (RT) for 10 h.

[30] = tested on: HT-29 human colon adenocarcinoma cells; settings: reported by Mező; cited from earlier work
[31] = tested on: MCF-7 human breast adenocarcinoma cells; settings: reported by Mező; cited from earlier work

SMILES: COc1cccc2c1C(=O)c1c(O)c3c(c(O)c1C2=O)C[C@@](O)(C(=O)CO)C[C@@H]3O[C@H]1C[C@H](N)[C@H](O)[C@H](C)O1 [DOX, doxorubicin]
- IC50 ([1]; read-out: Cytotoxic IC50, av. breast): 0.19 µM
- IC50 ([1]; read-out: Cytotoxic IC50, av. colorectal): 0.296 µM
- IC50 ([1]; read-out: Cytotoxic IC50, av. leukaemia): 0.0498 µM
- IC50 ([1]; read-out: Cytotoxic IC50, av. lung): 0.221 µM
- IC50 ([1]; read-out: Cytotoxic IC50, av. melanoma): 0.177 µM
- IC50 ([1]; read-out: Cytotoxic IC50, av. ovarian): 3.65 µM
- IC50 ([1]; read-out: Cytotoxic IC50, av. prostatic): 0.173 µM
- IC50 ([1]; read-out: Cytotoxic IC50, av. renal): 0.247 µM
- IC50 [2]: 0.242 µM
- IC50 [3]: 0.237 µM
- IC50 [4]: 0.0701 µM
- IC50 [5]: 0.16 µM
- IC50 [6]: 0.0604 µM
- IC50 [7]: 0.171 µM
- Tumor growth [8]: failed to exert any effect on tumor growth
- IC50 [9]: 0.0519 µM
- IC50 [10]: 0.0372 µM
- IC50 [11]: 0.484 µM
- IC50 [12]: 0.0624 µM

SMILES: COc1cccc2c1C(=O)c1c(O)c3c(c(O)c1C2=O)C[C@@](O)(C(C)=O)C[C@@H]3O[C@H]1C[C@H]2[C@H](OC3CCCN32)[C@H](C)O1 (some centres unmarked) [PyDau, 2-deamino-2-pyrrolino-daunorubicin]
- IC50 [13]: 0.00466 µM
- IC50 [14]: 0.00177 µM
- IC50 [15]: 0.00367 µM
- IC50 [16]: 0.00094 µM
- IC50 [17]: 0.00819 µM
- IC50 [18]: 0.0009 µM
- IC50 [19]: 0.00142 µM
- IC50 [20]: 0.0133 µM
- IC50 [21]: 0.00122 µM
- IC50 [22]: 0.00131 µM
- IC50 [23]: 0.00119 µM
- IC50 [24]: 0.00143 µM
- IC50 [25]: 0.003 µM
- IC50 [26]: 0.00278 µM
- IC50 [27]: 0.00109 µM
- Toxicity when given repeatedly [28]: still toxic
- Stability on storage [29]: stable for long time
- IC50 [30]: 0.0002 µM
- IC50 [31]: 0.0002 µM
